Like-named read-outs stand apart in the source and are kept apart here.
Test system: Pyricularia oryzae
Type: in vivo
Conditions: individual active compound, protective, inoculated next day, rated after 6 days

With `CC1CCN(c2c(-c3c(F)cccc3Cl)c(Cl)nc3ncnn23)CC1` [A] the “Efficacy in % of the untreated control” value (1 ppm in the spray liquor) was 0 % of the untreated control and the “Efficacy in % of the untreated control” value (4 ppm in the spray liquor) was 28 % of the untreated control.
With `C[C@H](Nc1c(-c2c(F)cc(F)cc2F)c(Cl)nc2ncnn12)C(F)(F)F` [B] the “Efficacy in % of the untreated control” value (1 ppm in the spray liquor) was 28 % of the untreated control and the “Efficacy in % of the untreated control” value (4 ppm in the spray liquor) was 52 % of the untreated control.
In the case of `CNC(=O)/C(=N/OC)c1ccccc1CO/N=C(C)/C(=N/OC)C(/C)=N/OC` [I (orysastrobin), 2-[2-(2,3-bismethoxyimino-1-methylbutylideneamino-oxymethyl)phenyl]-2-methoxyimino-N-methylacetamide], the “Efficacy in % of the untreated control” value (0.25 ppm in the spray liquor) is reported as 0 % of the untreated control and the “Efficacy in % of the untreated control” value (4 ppm in the spray liquor) is reported as 28 % of the untreated control.
With `CC1CCN(c2c(-c3c(F)cc(F)cc3F)c(Cl)nc3ncnn23)CC1` [II, 5-chloro-7-(4-methylpiperidin-1-yl)-6-(2,4,6-trifluorophenyl)-[1,2,4]triazolo[1,5-a]pyrimidine] the “Efficacy in % of the untreated control” value (1 ppm in the spray liquor) was 3 % of the untreated control and the “Efficacy in % of the untreated control” value (4 ppm in the spray liquor) was 52 % of the untreated control.

From US20060063786A1 (priority 2002, published 2006)
